Experimental data from the NIST ThermoML archive (doi:10.1016/j.jct.2015.09.029).

Experiment: mn = molality of the nth substance listed, in mol/kg
Conditions: 100 kPa, Liquid; for viscosity: Capillary tube (Ostwald / Ubbelohde) method; for speed of sound: Frequency=2 MHz, Linear variable-path acoustic interferometer; for mass density: Vibrating tube method

CCCC[P+](C)(CCCC)CCCC.COS(=O)(=O)[O-] [tributylmethylphosphonium methyl sulfate] + O
Conditions | mass density [kg/m3] | speed of sound [m/s] | viscosity [mPa·s]
298.15 K, m1 = 0.0282 | 997.65 | 1504.7 | 0.9199
298.15 K, m1 = 0.0438 | 997.98 | 1507.9 | 0.9362
298.15 K, m1 = 0.0564 | 998.25 | 1510.3 | 0.9494
298.15 K, m1 = 0.0658 | 998.45 | 1512.1 | 0.9592
298.15 K, m1 = 0.0847 | 998.86 | 1515.5 | 0.9789
298.15 K, m1 = 0.113 | 999.46 | 1520.9 | 1.009
298.15 K, m1 = 0.174 | 1000.77 | 1533.3 | 1.073
298.15 K, m1 = 0.2336 | 1002.05 | 1545.1 | 1.135
298.15 K, m1 = 0.2813 | 1003.07 | 1554.3 | 1.185
303.15 K, m1 = 0.0282 | 996.22 | 1517.7 | 0.8225
303.15 K, m1 = 0.0438 | 996.54 | 1521.6 | 0.8362
303.15 K, m1 = 0.0564 | 996.8 | 1524.6 | 0.8473
303.15 K, m1 = 0.0658 | 996.99 | 1526.7 | 0.8555
303.15 K, m1 = 0.0847 | 997.38 | 1530.7 | 0.8722
303.15 K, m1 = 0.113 | 997.96 | 1536.2 | 0.8971
303.15 K, m1 = 0.174 | 999.21 | 1547.8 | 0.951
303.15 K, m1 = 0.2336 | 1000.44 | 1558.6 | 1.004
303.15 K, m1 = 0.2813 | 1001.42 | 1566.7 | 1.046
308.15 K, m1 = 0.0282 | 994.58 | 1527.2 | 0.7395
308.15 K, m1 = 0.0438 | 994.89 | 1530.9 | 0.7505
308.15 K, m1 = 0.0564 | 995.14 | 1533.7 | 0.7595
308.15 K, m1 = 0.0658 | 995.32 | 1535.9 | 0.7662
308.15 K, m1 = 0.0847 | 995.7 | 1539.9 | 0.7796
308.15 K, m1 = 0.113 | 996.25 | 1545.9 | 0.7997
308.15 K, m1 = 0.174 | 997.45 | 1557.5 | 0.8432
308.15 K, m1 = 0.2336 | 998.62 | 1568.4 | 0.8857
308.15 K, m1 = 0.2813 | 999.56 | 1576.3 | 0.9199
313.15 K, m1 = 0.0282 | 992.74 | 1536.3 | 0.6725
313.15 K, m1 = 0.0438 | 993.04 | 1540 | 0.6832
313.15 K, m1 = 0.0564 | 993.27 | 1542.7 | 0.6919
313.15 K, m1 = 0.0658 | 993.45 | 1544.8 | 0.6983
313.15 K, m1 = 0.0847 | 993.81 | 1548.8 | 0.7113
313.15 K, m1 = 0.113 | 994.34 | 1554.2 | 0.7308
313.15 K, m1 = 0.174 | 995.49 | 1564.7 | 0.7728
313.15 K, m1 = 0.2336 | 996.62 | 1572 | 0.814
313.15 K, m1 = 0.2813 | 997.52 | 1578 | 0.847

CCCC[P+](CCCC)(CCCC)CCCC.[Cl-] [tetrabutylphosphonium chloride] + O
Conditions | mass density [kg/m3] | speed of sound [m/s] | viscosity [mPa·s]
298.15 K, m1 = 0.0249 | 996.83 | 1506.4 | 0.9234
298.15 K, m1 = 0.0773 | 996.44 | 1520 | 0.9925
298.15 K, m1 = 0.1592 | 995.93 | 1541.6 | 1.101
298.15 K, m1 = 0.2659 | 995.41 | 1567.7 | 1.241
298.15 K, m1 = 0.3842 | 994.99 | 1593.7 | 1.397
298.15 K, m1 = 0.4509 | 994.8 | 1607.4 | 1.486
298.15 K, m1 = 0.504 | 994.67 | 1617.5 | 1.556
298.15 K, m1 = 0.5771 | 994.5 | 1630.3 | 1.652
303.15 K, m1 = 0.0249 | 995.41 | 1518.2 | 0.8256
303.15 K, m1 = 0.0773 | 994.97 | 1532.4 | 0.8843
303.15 K, m1 = 0.1592 | 994.37 | 1551.9 | 0.9761
303.15 K, m1 = 0.2659 | 993.73 | 1575.2 | 1.095
303.15 K, m1 = 0.3842 | 993.17 | 1598.2 | 1.228
303.15 K, m1 = 0.4509 | 992.9 | 1610.1 | 1.302
303.15 K, m1 = 0.504 | 992.7 | 1619.5 | 1.362
303.15 K, m1 = 0.5771 | 992.42 | 1633.2 | 1.444
308.15 K, m1 = 0.0295 | 993.74 | 1529.8 | 0.7476
308.15 K, m1 = 0.0842 | 993.23 | 1541.2 | 0.7998
308.15 K, m1 = 0.1722 | 992.52 | 1559.9 | 0.8836
308.15 K, m1 = 0.2979 | 991.68 | 1585.8 | 1.004
308.15 K, m1 = 0.3554 | 991.35 | 1595.6 | 1.058
308.15 K, m1 = 0.4266 | 990.98 | 1607.8 | 1.126
308.15 K, m1 = 0.4508 | 990.86 | 1611.9 | 1.149
308.15 K, m1 = 0.5619 | 990.34 | 1628.9 | 1.255
313.15 K, m1 = 0.0295 | 991.9 | 1537.3 | 0.6773
313.15 K, m1 = 0.0842 | 991.36 | 1547.8 | 0.722
313.15 K, m1 = 0.1722 | 990.57 | 1566.5 | 0.7937
313.15 K, m1 = 0.2979 | 989.61 | 1588.4 | 0.8964
313.15 K, m1 = 0.3554 | 989.21 | 1597.3 | 0.9432
313.15 K, m1 = 0.4266 | 988.76 | 1607.8 | 1.001
313.15 K, m1 = 0.4508 | 988.61 | 1611.4 | 1.021
313.15 K, m1 = 0.5619 | 987.95 | 1627.3 | 1.112

CC(C)C[P+](C)(CC(C)C)CC(C)C.Cc1ccc(S(=O)(=O)[O-])cc1 [triisobutylmethylphosphonium p-toluenesulfonate] + O
Conditions | mass density [kg/m3] | speed of sound [m/s] | viscosity [mPa·s]
298.15 K, m1 = 0.0237 | 997.74 | 1507.2 | 0.9191
298.15 K, m1 = 0.0468 | 998.42 | 1513.7 | 0.9471
298.15 K, m1 = 0.0663 | 999 | 1518.8 | 0.9707
298.15 K, m1 = 0.0901 | 999.7 | 1524.8 | 0.9996
298.15 K, m1 = 0.1848 | 1002.5 | 1546.4 | 1.115
298.15 K, m1 = 0.2883 | 1005.48 | 1566.5 | 1.241
298.15 K, m1 = 0.3948 | 1008.42 | 1586.1 | 1.373
298.15 K, m1 = 0.4278 | 1009.28 | 1592.4 | 1.413
298.15 K, m1 = 0.478 | 1010.56 | 1601.7 | 1.475
298.15 K, m1 = 0.5156 | 1011.48 | 1608.3 | 1.522
303.15 K, m1 = 0.0237 | 996.31 | 1518.8 | 0.8224
303.15 K, m1 = 0.0468 | 996.97 | 1525.3 | 0.8466
303.15 K, m1 = 0.0663 | 997.53 | 1530.8 | 0.8669
303.15 K, m1 = 0.0901 | 998.21 | 1536.6 | 0.8919
303.15 K, m1 = 0.1848 | 1000.89 | 1555.9 | 0.9914
303.15 K, m1 = 0.2883 | 1003.76 | 1574.5 | 1.101
303.15 K, m1 = 0.3948 | 1006.58 | 1590.7 | 1.214
303.15 K, m1 = 0.4278 | 1007.42 | 1596.2 | 1.249
303.15 K, m1 = 0.478 | 1008.64 | 1604 | 1.302
303.15 K, m1 = 0.5156 | 1009.52 | 1609.4 | 1.343
308.15 K, m1 = 0.0253 | 994.73 | 1528.8 | 0.7415
308.15 K, m1 = 0.053 | 995.49 | 1536.4 | 0.7656
308.15 K, m1 = 0.0791 | 996.21 | 1541.7 | 0.7883
308.15 K, m1 = 0.1003 | 996.79 | 1545.6 | 0.8068
308.15 K, m1 = 0.2056 | 999.66 | 1566.2 | 0.8989
308.15 K, m1 = 0.2689 | 1001.35 | 1577.9 | 0.9546
308.15 K, m1 = 0.3193 | 1002.66 | 1587.2 | 0.999
308.15 K, m1 = 0.3643 | 1003.8 | 1592.7 | 1.039
308.15 K, m1 = 0.4345 | 1005.51 | 1602 | 1.101
308.15 K, m1 = 0.5175 | 1007.42 | 1612.8 | 1.175
313.15 K, m1 = 0.0253 | 992.9 | 1538.7 | 0.6717
313.15 K, m1 = 0.053 | 993.66 | 1545.1 | 0.692
313.15 K, m1 = 0.0791 | 994.36 | 1551.5 | 0.7111
313.15 K, m1 = 0.1003 | 994.92 | 1556.3 | 0.7266
313.15 K, m1 = 0.2056 | 997.66 | 1575.1 | 0.8042
313.15 K, m1 = 0.2689 | 999.26 | 1584.7 | 0.851
313.15 K, m1 = 0.3193 | 1000.5 | 1592.3 | 0.8883
313.15 K, m1 = 0.3643 | 1001.59 | 1598.1 | 0.9218
313.15 K, m1 = 0.4345 | 1003.25 | 1607.3 | 0.9741
313.15 K, m1 = 0.5175 | 1005.14 | 1617.1 | 1.036
